Measurements published in US5043450A, “8-alkoxyquinolonecarboxylic acid and salts thereof” (priority 1986, dated 1991).
≈ marks a conversion by molar mass, not a printed value. Read-outs that look alike come from different tables or passages of the source.

Assays:
Assay type in all cases: cell-based
C. perfringens KYA 13123 = test: microbe, parasite or virus in culture; conditions: Clostridium perfringens, KYA13123
[1] = test system: Klebsiella pneumoniae KY(GN)6445; test: Antibacterial spectra, MIC
[2] = test system: Morganella morganii IID 602; test: Antibacterial spectra, MIC
[3] = test system: Salmonella enteritidis IID 604; test: Antibacterial spectra, MIC; conditions: Salmonella enterica
[4] = test system: Citrobacter freundii IID 976; test: Antibacterial spectra, MIC
[5] = test system: Peptococcus magnus KY 017; test: Antibacterial spectra, MIC; conditions: Finegoldia magna, KY017
F. varium KYA 8501 = test: Antibacterial spectra, MIC; conditions: Fusobacterium varium, KYA8501
[6] = test system: Clostridium difficile I-E; test: Antibacterial spectra, MIC; conditions: Clostridioides difficile
[7] = test system: Eubacterium lentum GAI 5242; test: Antibacterial spectra, MIC; conditions: Eggerthella lenta, GAI5242
S. aureus Smith = test: Antibacterial spectra, MIC; conditions: Staphylococcus aureus
[8] = test system: Propionibacterium acens 11828; test: Antibacterial spectra, MIC
B. vulgatus KYA 29327 = test: Antibacterial spectra, MIC; conditions: Phocaeicola vulgatus, KYA29327
[9] = test system: Fusobacterium mortiferum 4249; test: Antibacterial spectra, MIC
S. epidermidis IID 866 = test: Antibacterial spectra, MIC; conditions: Staphylococcus epidermidis, IID866
P. mirabilis IID 994 = test: Antibacterial spectra, MIC; conditions: Proteus mirabilis, IID994
[10] = test system: B. thetaiotaomicron (0661); test: Antibacterial spectra, MIC; conditions: Bacteroides thetaiotaomicron
[11] = test system: Acinetobacter anitratus IID 876; test: Antibacterial spectra, MIC; conditions: Acinetobacter calcoaceticus, IID876
B. fragilis 0558 = test: Antibacterial spectra, MIC; conditions: Bacteroides fragilis
E. coli ATCC 10536 = test: Antibacterial spectra, MIC; conditions: Escherichia coli, ATCC10536
P. aeruginosa IID 1210 = test: Antibacterial spectra, MIC; conditions: Pseudomonas aeruginosa, IID1210
K. pneumoniae 1-220S = test: Antibacterial spectra, MIC; conditions: Klebsiella pneumoniae, 1220S
[12] = test system: Bacteroides fragilis GM 7000; test: Antibacterial spectra, MIC; conditions: GM7000
[13] = test system: Veillonella parvula KYA 10790; test: Antibacterial spectra, MIC; conditions: KYA10790
[14] = test system: Yersinia enterocolitica IID 981; test: Antibacterial spectra, MIC
C. ramosum = test: Antibacterial spectra, MIC; conditions: Thomasclavelia ramosa
[15] = test system: Alcaligenes faecalis 0114002; test: Antibacterial spectra, MIC
Pst. micros UPI 5464-1 = test: Antibacterial spectra, MIC; conditions: Parvimonas micra, UPI54641
[16] = test system: Staphylococcus aureus 209 P; test: Antibacterial spectra, MIC
[17] = test system: Escherichia coli NIHJ JC-2; test: Antibacterial spectra, MIC; conditions: NIHJJC2
[18] = test system: Peptostreptococcus anaerobius KYA 27337; test: Antibacterial spectra, MIC
[19] = test system: Proteus vulgaris IFO 3167; test: Antibacterial spectra, MIC; conditions: IFO3167, 10^6 cells/ml, Gram -
Experimental: (§1) The antibacterial test was carried out according to the method designated by Japan Society of Chemotherapy.

E. coli ML 4707 = test: Antibacterial spectra, MIC; conditions: Escherichia coli, ML4707; 10^6 cells/ml; Gram -
Experimental: as §1

Shigella sonnei IID 969 = test: Antibacterial spectra, MIC; conditions: IID969, 10^6 cells/ml, Gram -
Experimental: as §1

P. maltophilia GIFU 2491 = test: Antibacterial spectra, MIC; conditions: Stenotrophomonas maltophilia, GIFU2491
P. aeruginosa IFO 12689 = test: Antibacterial spectra, MIC; conditions: Pseudomonas aeruginosa, IFO12689
B. distasonis 8503 = test: Antibacterial spectra, MIC; conditions: Parabacteroides distasonis
Bacilus subtilis PCI 219 = test: Antibacterial spectra, MIC; conditions: Bacillus subtilis, PCI219
B. fragilis 25285 = test: Antibacterial spectra, MIC; conditions: Bacteroides fragilis
[20] = test system: Enterobacter cloacae IID 977; test: Antibacterial spectra, MIC
[21] = test system: S. aureus IID 670 (Terajima); test: Antibacterial spectra, MIC; conditions: Staphylococcus aureus, IID670
F. necrophorum S-45 = test: Antibacterial spectra, MIC; conditions: Fusobacterium necrophorum, S45
[22] = test system: Serratia marcescens IID 618; test: Antibacterial spectra, MIC
[23] = test system: Pseudomonas aeruginosa V-1; test: Antibacterial spectra, MIC; conditions: V1
P. cepacia GIFU 518 = test: Antibacterial spectra, MIC; conditions: Burkholderia cepacia, GIFU518
[24] = 10^6 cells/ml, Gram -, read-out: MIC
[25] = 10^6 cells/ml, Gram +, read-out: MIC

SMILES: COc1c(N2CCNC(C)C2)c(F)cc2c(=O)c(C(=O)O)cn(C3CC3)c12 (stereo not shown) [Exp. 3, 1-cyclopropyl-6-fluoro-1,4-dihydro-8-methoxy-7-(3-methyl-1-piperazinyl)-4-oxo-3-quinolinecarboxylic acid]
- MIC (C. perfringens KYA 13123): 0.39 mg/L (≈ 1.04 µM)
- MIC [1]: 0.025 mg/L (≈ 0.0666 µM)
- MIC ([2]; IID602): 0.1 mg/L (≈ 0.266 µM)
- MIC [3]: 0.05 mg/L (≈ 0.133 µM)
- MIC ([4]; IID976): 0.025 mg/L (≈ 0.0666 µM)
- MIC [5]: 0.2 mg/L (≈ 0.533 µM)
- MIC (F. varium KYA 8501): 6.25 mg/L (≈ 16.6 µM)
- MIC [6]: 3.13 mg/L (≈ 8.34 µM)
- MIC [7]: 0.2 mg/L (≈ 0.533 µM)
- MIC (S. aureus Smith): 0.1 mg/L (≈ 0.266 µM)
- MIC [8]: 6.25 mg/L (≈ 16.6 µM)
- MIC (B. vulgatus KYA 29327): 0.78 mg/L (≈ 2.08 µM)
- MIC [9]: 0.78 mg/L (≈ 2.08 µM)
- MIC (S. epidermidis IID 866): 0.1 mg/L (≈ 0.266 µM)
- MIC (P. mirabilis IID 994): 0.025 mg/L (≈ 0.0666 µM)
- MIC [10]: 0.78 mg/L (≈ 2.08 µM)
- MIC [11]: 0.1 mg/L (≈ 0.266 µM)
- MIC (B. fragilis 0558): 0.39 mg/L (≈ 1.04 µM)
- MIC (E. coli ATCC 10536): 0.0125 mg/L (≈ 0.0333 µM)
- MIC (P. aeruginosa IID 1210): 1.56 mg/L (≈ 4.16 µM)
- MIC (K. pneumoniae 1-220S): 0.05 mg/L (≈ 0.133 µM)
- MIC [12]: 0.39 mg/L (≈ 1.04 µM)
- MIC [13]: 0.2 mg/L (≈ 0.533 µM)
- MIC ([14]; IID981): 0.05 mg/L (≈ 0.133 µM)
- MIC (C. ramosum): 3.13 mg/L (≈ 8.34 µM)
- MIC [15]: 0.39 mg/L (≈ 1.04 µM)
- MIC (Pst. micros UPI 5464-1): 0.2 mg/L (≈ 0.533 µM)
- MIC [16]: 0.1 mg/L (≈ 0.266 µM)
- MIC [17]: ≤ 0.0063 mg/L
- MIC ([18]; KYA27337): 0.39 mg/L (≈ 1.04 µM)
- MIC [19]: 0.025 mg/L (≈ 0.0666 µM)
- MIC (E. coli ML 4707): 0.0125 mg/L (≈ 0.0333 µM)
- MIC (Shigella sonnei IID 969): 0.0125 mg/L (≈ 0.0333 µM)
- MIC (P. maltophilia GIFU 2491): 0.2 mg/L (≈ 0.533 µM)
- MIC (P. aeruginosa IFO 12689): 1.56 mg/L (≈ 4.16 µM)
- MIC (B. distasonis 8503): 0.78 mg/L (≈ 2.08 µM)
- MIC (Bacilus subtilis PCI 219): 0.025 mg/L (≈ 0.0666 µM)
- MIC (B. fragilis 25285): 0.39 mg/L (≈ 1.04 µM)
- MIC ([20]; IID977): 0.05 mg/L (≈ 0.133 µM)
- MIC [21]: 0.1 mg/L (≈ 0.266 µM)
- MIC (F. necrophorum S-45): 0.39 mg/L (≈ 1.04 µM)
- MIC ([22]; IID618): 0.1 mg/L (≈ 0.266 µM)
- MIC [23]: 0.2 mg/L (≈ 0.533 µM)
- MIC (P. cepacia GIFU 518): 1.56 mg/L (≈ 4.16 µM)

SMILES: COc1c(N2CCN(C)CC2)c(F)cc2c(=O)c(C(=O)O)cn(C3CC3)c12 [Exp. 2, 1-cyclopropyl-6-fluoro-1,4-dihydro-8-methoxy-7-(4-methyl-1-piperazinyl)-4-oxo-3-quinolinecarboxylic acid]
- MIC (C. perfringens KYA 13123): 0.39 mg/L (≈ 1.04 µM)
- MIC [1, 24]: 0.05 mg/L (≈ 0.133 µM)
- MIC ([2]; IID602, 10^6 cells/ml, Gram -, read-out: MIC): 0.1 mg/L (≈ 0.266 µM)
- MIC [3, 24]: 0.1 mg/L (≈ 0.266 µM)
- MIC ([4]; IID976, 10^6 cells/ml, Gram -, read-out: MIC): 0.05 mg/L (≈ 0.133 µM)
- MIC [5, 25]: 0.2 mg/L (≈ 0.533 µM)
- MIC (F. varium KYA 8501; [24]): 6.25 mg/L (≈ 16.6 µM)
- MIC [6, 25]: 1.56 mg/L (≈ 4.16 µM)
- MIC [7, 25]: 0.2 mg/L (≈ 0.533 µM)
- MIC (S. aureus Smith; [25]): 0.1 mg/L (≈ 0.266 µM)
- MIC [8, 25]: 6.25 mg/L (≈ 16.6 µM)
- MIC (B. vulgatus KYA 29327): 0.39 mg/L (≈ 1.04 µM)
- MIC [9, 24]: 0.78 mg/L (≈ 2.08 µM)
- MIC (S. epidermidis IID 866; [25]): 0.1 mg/L (≈ 0.266 µM)
- MIC (P. mirabilis IID 994; [24]): 0.05 mg/L (≈ 0.133 µM)
- MIC [10, 24]: 1.56 mg/L (≈ 4.16 µM)
- MIC [11, 24]: 0.1 mg/L (≈ 0.266 µM)
- MIC (B. fragilis 0558; [24]): 0.2 mg/L (≈ 0.533 µM)
- MIC (E. coli ATCC 10536): 0.025 mg/L (≈ 0.0666 µM)
- MIC (P. aeruginosa IID 1210; [24]): 1.56 mg/L (≈ 4.16 µM)
- MIC (K. pneumoniae 1-220S; [24]): 0.1 mg/L (≈ 0.266 µM)
- MIC [12]: 0.39 mg/L (≈ 1.04 µM)
- MIC [13]: 0.39 mg/L (≈ 1.04 µM)
- MIC ([14]; IID981, 10^6 cells/ml, Gram -, read-out: MIC): 0.1 mg/L (≈ 0.266 µM)
- MIC (C. ramosum): 3.13 mg/L (≈ 8.34 µM)
- MIC [15]: 0.39 mg/L (≈ 1.04 µM)
- MIC (Pst. micros UPI 5464-1): 0.39 mg/L (≈ 1.04 µM)
- MIC [16, 25]: 0.1 mg/L (≈ 0.266 µM)
- MIC [17]: 0.0125 mg/L (≈ 0.0333 µM)
- MIC ([18]; KYA27337, 10^6 cells/ml, Gram +, read-out: MIC): 0.78 mg/L (≈ 2.08 µM)
- MIC [19]: 0.025 mg/L (≈ 0.0666 µM)
- MIC (E. coli ML 4707): 0.025 mg/L (≈ 0.0666 µM)
- MIC (Shigella sonnei IID 969): 0.025 mg/L (≈ 0.0666 µM)
- MIC (P. maltophilia GIFU 2491; [24]): 0.2 mg/L (≈ 0.533 µM)
- MIC (P. aeruginosa IFO 12689; [24]): 1.56 mg/L (≈ 4.16 µM)
- MIC (B. distasonis 8503): 0.39 mg/L (≈ 1.04 µM)
- MIC (Bacilus subtilis PCI 219): 0.025 mg/L (≈ 0.0666 µM)
- MIC (B. fragilis 25285): 0.39 mg/L (≈ 1.04 µM)
- MIC ([20]; IID977, 10^6 cells/ml, Gram -, read-out: MIC): 0.1 mg/L (≈ 0.266 µM)
- MIC [21, 25]: 0.1 mg/L (≈ 0.266 µM)
- MIC (F. necrophorum S-45; [24]): 0.78 mg/L (≈ 2.08 µM)
- MIC ([22]; IID618, 10^6 cells/ml, Gram -, read-out: MIC): 0.1 mg/L (≈ 0.266 µM)
- MIC [23]: 0.39 mg/L (≈ 1.04 µM)
- MIC (P. cepacia GIFU 518; [24]): 1.56 mg/L (≈ 4.16 µM)
